Results taken from patent US8575218B2, “Thiol-containing compounds for the removal of elements from tissues and formulations therefor” (priority 2009, dated 2013).

Legend:
goldfish = experiment: Exposure of goldfish to mercuric acetate with and without chelators; assay type: in vivo
Procedure: Individual goldfish were placed in 200 ml water with 10 mM sodium chloride in 250 ml Erlenmeyer flasks (pH 7.00). Air was pumped into the flasks to maintain a healthy supply of oxygen. The 24 hour day was divided in to a 12 hour light/dark photoperiod. The goldfish were allowed to acclimatize for a week before the experiment was conducted, with daily water changes. Goldfish were fed standard fish food for 15 minutes each day before the water was changed.
The chelate ligands were dissolved in dimethyl sulfoxide (DMSO, 0.5 ml) before addition to the flasks. The experimental treatments evaluated are as listed in Table 1 below, and included mercuric acetate, B9, EEAB9, GB9, GEEAB9, and DMSO in the amounts shown in Table 1. B9 and EEAB9 were dissolved in DMSO (0.5 ml) before addition to the water. No precipitate was formed during the dissolution.

[1] = Solubility of isolated product in solvents; assay type: physicochemical

Structure (SMILES)	Goldfish state (Alive/Dead) at 30 min (goldfish; mercuric acetate 0.5 mM + DMSO 0.5 ml)	Goldfish state (Alive/Dead) at 30 min (goldfish; mercuric acetate 0.5 mM alone)	Time to death of goldfish (goldfish; mercuric acetate without chelator) [min]	Solubility in solvents [1]
CC(=O)[O-].CC(=O)[O-].[Hg+2] [Mercuric acetate]	Dead	Dead	≤ 30	–
NC(CCC(=O)NC(CSSCCNC(=O)c1cccc(C(=O)NCCSSCC(NC(=O)CCC(N)C(=O)O)C(=O)NCC(=O)O)c1)C(=O)NCC(=O)O)C(=O)O (stereo not shown) [GB9]	–	–	–	readily dissolved in water
